“Also recorded” adds a separate entry of the source.
Assays:
[1] = system: human reticular fibroblasts (HRF); test: Transdifferentiation of primary human dermal fibroblasts, reticular; type: cell-based; details: 5 μg/ml, peptide replaced insulin
Protocol: The B peptide and the KSEVSK 6-mer were also tested for their adipogenic effect on primary human dermal fibroblasts from the upper (papillary) and lower (reticular) dermal layers. The primary human fibroblasts were obtained from dermatome sections of biopsies from human volunteers. Cells were cultured and exposed to adipogenic medium. In these experiments, the B peptide and the KSEVSK 6-mer replaced insulin as the adipogenic stimulus. The peptides were used at a concentration of 5 μg/ml. Adipogenesis was assessed by Oil Red O staining. […] White arrows show fat droplets.

[2] = system: RHAMM; test: Blocking of RHAMM function; details: competitive blocker / direct binding
Description: We hypothesized that the fragment and the antibody were blocking RHAMM function by competitive inhibition and by direct binding/blocking of RHAMM, respectively. Using truncation analyses, the size of the peptide was further reduced to 32 amino acids ([…] (SEQ ID NO: 92)) and it was shown that adipogenic activity is localized to a 15 amino acid peptide (KLKDENSQLKSEVSK (SEQ ID NO: 2); “peptide B” or “B-1” herein) shown in FIG. 2. This peptide was chemically synthesized to use as a competitive blocker, and antibodies were prepared against this sequence tagged with keyhold lymphocyte hemacyanin (KLH) to directly bind/block RHAMM function.

[3] = system: nude guinea pigs; test: Subcutaneous fat deposition in nude guinea pigs; type: in vivo, guinea pig; details: injection on upper back and in ear fat pad; control collagen gel vehicle only
Protocol: Peptide B (SEQ ID NO: 2) was also tested for its effect in nude guinea pigs since their skin structure resembles human facial skin. In particular, the skin of this animal model is more similar to human skin than is rat skin, in that it is hairless and the keratinocyte layer is thicker than in the rat model. […] Thus, peptide B was effective in promoting adipogenesis in this nude guinea pig model.

[4] = system: rat mesenchymal stem cells; test: Adipogenesis Assay 2 (dexamethasone/insulin/indomethacin induction, then peptide; Oil Red O or BODIPY); type: cell-based; details: Assay 2
Protocol: Reagents: The dexamethasone, insulin, and Oil Red O solutions were the same as described above for assay 1. Indomethacin Solution contained 10 mM indomethacin in methanol. The BODIPY 493/503 dye was used at a concentration of 4 μM.
Adipogenesis Maintenance Media was prepared as described above.
Adipogenesis Induction Media: To prepare 501 mL of Adipogenesis Induction Media, 50 μL of the 10 mM stock solution of dexamethasone, 500 μL of the 10 mg/ml stock solution of insulin, 5 ml of a 10 mM stock solution of indomethacin, and 5 mL of a 100× stock solution of penicillin and streptomycin were added to 490 mL of mesenchymal stem cell expansion media.
Pre-adipocyte stem cells, bone marrow mesenchymal stem cells and fibroblasts such as dermal reticular and papillary fibroblasts were propagated using standard tissue culture methods. Cells were trypsinized to remove cells from the substratum, the trypsin was neutralized, and cells were counted using a hemocytometer. Cells were resuspended at 60,000 cells/ml in low glucose DMEM containing 10% calf serum. 1 mL of cell suspension per well was plated in a 24-well plate, with several wells left empty for blank well staining.
Cells were incubated overnight and had reached confluency at this point. Approximately 1.8 ml of media was removed from each well and replaced with 2 ml Adipogenesis Induction Media. For negative control wells, expansion medium only was used at this step and for subsequent media changes. For all media changes, media was replaced as gently as possible to avoid disturbing the monolayer.
Media was removed and replaced with 2 ml of maintenance medium containing either RHAMM antagonist peptides (experimental group) or insulin (concentration as in the induction medium used as positive control). […]
Media was removed and BODIPY or Oil Red O staining was performed as described above for assay 1.
As described above in Example 1, two different adipogenesis assays were used herein to assess the adipogenic effects of the peptides in rat mesenchymal stem cells. Assay 1 is an assay that is typically used to promote transdifferentiation of fibroblasts into adipocytes, whereas Assay 2 is typically used to promote differentiation of multi-potential mesenchymal progenitor cells into adipocytes. Immortalized rat bone marrow mesenchymal stem cells were used for both assays. These cells contain cells of different lineages, including fibroblasts, pre-adipocytes, pre-chondrocytes and pre-osteoblasts. Thus, Assay 1 was used to promote transdifferentiation of the fibroblast lineages into adipocytes and Assay 2 was used to promote differentiation of the pre-adipocytes into adipocytes.
As described in Example 1 above, the priming stimulus for Assay 1 includes IBMX (3-isobutyl-1-methylxanthine) and dexamethasone, and then insulin as the final adipogenic stimulus. The priming stimulus for assay 2 includes IBMX, dexamethasone and indomethacin, and then insulin as the final adipogenic stimulus.

[5] = system: human adipose-derived stem cells (h-ADSCs); test: Differentiation of human adipose-derived stem cells (h-ADSCs); type: cell-based; details: for adipogenesis, absorbance of extracted Oil Red O: 5 μg/ml in adipogenic cocktail in the absence of insulin and PPARγ agonist, two weeks; for adipogenesis (micrographs) in the absence of PPARγ agonist / adipogenesis (micrographs) in the presence of PPARγ agonist: B peptide 5 μg/ml, 6-mer 5 μg/ml or 20 μg/ml
Description: The Adipocyte Differentiation Medium contained DMEM/Ham's F-12 (1:1 v/v), HEPES pH 7.4, fetal bovine serum, biotin, penicillin, streptomcyin, amphotericin B, pantothenate, human insulin, dexamethasone, isobutylmethylxanthine (IBMX) and a PPARγ agonist. This positive stimulus was used as the positive control. […] The upper right panel and the lower left panel of FIG. 14 provide two different fields of view of the h-ASDCs exposed to the adipogenic cocktail at 4× magnification.
Monolayers that were maintained in Preadipocyte Medium only (ZenBio catalog no. PM-1, containing DMEM/Ham's F-12 (1:1 v/v), HEPES 7.4, fetal bovine serum, penicillin, streptomcyin, and amphotericin B) or monolayers that were exposed to the adipogenic cocktail without insulin and PPARγ agonist were both used as negative controls. […] The negative controls shown in FIG. 15 were exposed to Preadipocyte Medium only. […] The adipogenic peptides (peptide B and the KSEVSK 6-mer) were mixed into adipogenic cocktail that lacked the PPARγ agonist and/or insulin and used as the experimental condition.
To quantify the adipogenic activity of the KSEVSK 6-mer (SEQ ID NO: 3) and the B peptide (SEQ ID NO: 2), h-ADSCs were exposed to 5 μg/ml of these peptides in the adipogenic cocktail in the absence of insulin and PPARγ agonist). The experiment was terminated two weeks after the addition of adipogenic mixtures. At this time, photographs of monolayers were taken and the lipid droplet accumulation was quantified by measuring the absorbance of extracted Oil Red 0. […] The peptides stimulated adipogenesis to a similar extent when the PPARγ agonist alone or both the PPARγ agonist and insulin were deleted from the adipogenic cocktail (not shown).
In further studies using h-ADSCs, two different protocols were used. In the first of these protocols, h-ADSCs were exposed to the adipogenic cocktail plus the KSEVSK 6-mer (SEQ ID NO: 3) or B peptide (SEQ ID NO: 2) at concentrations of 5 μg/ml or 20 μg/ml. […] In the second of these protocols, h-ADSCs were exposed to adipogenic cocktail in which the PPARγ agonist was replaced with either the KSEVSK 6-mer or the B peptide at concentrations of 5 μg/ml or 20 μg/ml. […] Statistical analysis were performed compared to negative control. Data presented as mean±standard error (n=3).

Row | Substance | transdifferentiation into adipocytes, Oil Red O staining ([1]; listed as B peptide) | RHAMM function [2] | subcutaneous fat deposition (H and E staining) [3] | Fold adipogenic induction vs. negative control [4] | Specific activity (activity/1000 daltons) [4] | adipogenesis, absorbance of extracted Oil Red O [5] | adipogenesis (micrographs) in the absence of PPARγ agonist [5] | adipogenesis (micrographs) in the presence of PPARγ agonist [5] | transdifferentiation into adipocytes, Oil Red O staining [1] | adipogenesis (lipid droplets) compared with positive control ([5]; two weeks after initiation, peptide in cocktail lacking PPARγ agonist and/or insulin)
1 | KLKDENSQLKSEVSK [peptide B] | stimulated the transdifferentiation; also recorded: stimulated the trans-differentiation | effectively block RHAMM function | increase in subcutaneous fat deposition | 4.0 | 2.17 activity/1000 daltons | strongly promoted adipogenesis compared to the negative control (p<0.05) | underwent adipogenesis | underwent adipogenesis |  | 
2 | KSEVSK [KSEVSK 6-mer] |  |  |  | 2.5 | 3.32 activity/1000 daltons | strongly promoted adipogenesis compared to the negative control (p<0.05) | underwent adipogenesis | underwent adipogenesis | stimulated the transdifferentiation | more effective at promoting adipogenesis than the positive control
